Data taken from patent publication US4683227A, “Antibiotic derivatives of 7β-[2-(thiazol-4-yl)acetamide]-3-chloro-3-cephem-4-carboxylic acids and compositions and method of use thereof” (Eli Lilly and Company, priority 1985, dated 1987).
≈ marks a conversion by molar mass, not a printed value. Read-outs that look alike come from different tables or passages of the source.

Key:
Escherichia coli EC14 = assay: Minimum inhibitory concentration, standard agar dilution method; assay type: cell-based
From the text: (§1) The method of this invention is useful in treating infections caused by a variety of microorganisms pathogenic to man and animals. […] The concentrations were obtained by the standard agar dilution method.

Escherichia coli N10 = assay: as above; assay type: cell-based
From the text: as §1

Escherichia coli TEM = assay: as above; assay type: cell-based
From the text: as §1

[1] = tested on: Haemophilus influenzae 76; assay: as above; assay type: cell-based
From the text: as §1

[2] = tested on: Haemophilus influenzae C.L.; assay: as above; assay type: cell-based
From the text: as §1

[3] = tested on: Klebsiella pneumoniae KAE; assay: as above; assay type: cell-based; details: for MIC: read-out: Minimum Inhibitory Concentration
From the text: as §1

[4] = tested on: Klebsiella pneumoniae X26; assay: as above; assay type: cell-based
From the text: as §1

[5] = tested on: Klebsiella pneumoniae X68; assay: as above; assay type: cell-based
From the text: as §1

[6] = tested on: Staphylococcus aureus S13E; assay: as above; assay type: cell-based; details: for Minimum Inhibitory Concentration: Staphylococcus aureus S13E, agar dilution; for MIC: Staphylococcus aureus, S13E, read-out: Minimum Inhibitory Concentration
From the text: as §1

[7] = tested on: Staphylococcus aureus V41; assay: as above; assay type: cell-based
From the text: as §1

[8] = tested on: Staphylococcus aureus X1.1; assay: as above; assay type: cell-based
From the text: as §1

[9] = tested on: Staphylococcus aureus X400; assay: as above; assay type: cell-based
From the text: as §1

[10] = tested on: Staphylococcus epidermidis 222; assay: as above; assay type: cell-based
From the text: as §1

[11] = tested on: Staphylococcus epidermidis Epil; assay: as above; assay type: cell-based
From the text: as §1

[12] = tested on: Streptococcus pneumoniae PARK I; assay: as above; assay type: cell-based
From the text: as §1

[13] = tested on: Streptococcus pyogenes C203; assay: as above; assay type: cell-based
From the text: as §1

[14] = tested on: Streptococcus sp. group D 2041; assay: as above; assay type: cell-based; details: for MIC: read-out: Minimum Inhibitory Concentration
From the text: as §1

[15] = tested on: Streptococcus sp. group D X66; assay: as above; assay type: cell-based; details: for MIC: read-out: Minimum Inhibitory Concentration
From the text: as §1

[16] = Peroral bioavailability in mice (oral vs subcutaneous dosage); assay type: in vivo, mice (Cox Male Standard Mice, Lai:COX (Standard) BR); details: 20 mg/kg; for Oral Bioavailability % BA (AUC): area under plasma curves after oral vs subcutaneous dosage; for Oral Bioavailability % BA (URINE): urinary excretion after oral vs subcutaneous dosage
From the text: Cox Male Standard Mice, Lai:COX (Standard) BR were housed overnight in a wire-bottom cage with free access to water and liquid diet. The result was a gastro-intestinal tract free of solids, yet without the nutritional shock and coprophagy that often accompanies overnight starvation of rodents. After dosing, the mice were housed individually in ventilated wide-mouth jars containing a layer of buffer beneath an elevated wire screen floor. At intervals after dosing, mice were removed from the jars and heparinized blood, stomach, and small intestine were removed from the animals. The urinary bladder was removed and combined with the urine collected in the buffer in the bottom of the jars. Urine, washings from the stomach and small intestine, and plasma prepared from blood samples were assayed for antibiotic activity. The test procedure used is a modification of the test procedure described by W. E. Wright, et al., J. Antibiotics, 32:1155 (1979).
Dose solutions were prepared in saline at 2 mg/ml for subcutaneous or oral administration. In all cases the compounds were administered to the mice at 20 mg/kg on an equal weight basis.
The biological activity of the samples was determined by a conventional agar well procedure using Bacillus subtilis ATCC 6633 as the test organism.
Peroral bioavailability (BA) of the test compounds in mice can be determined either by comparison of the area under the plasma curves (AUC) after oral or subcutaneous dosage, or by comparison of the urinary excretion of the dose after oral and subcutaneous dosage. Calculations of BA by either method are made with the following formulae: [formula]

[17] = Oral bioavailability in dogs; assay type: in vivo; details: female mongrel dogs
[18] = in vivo, po; cited from earlier work
[19] = Klebsiella pneumoniae KAE, agar dilution
[20] = Staphylococcus aureus V41, agar dilution
[21] = Staphylococcus aureus X400, agar dilution
[22] = Streptococcus sp. group D 2041, agar dilution
[23] = Streptococcus sp. group D X66, agar dilution
[24] = Staphylococcus aureus V41, agar dilution, read-out: Minimum Inhibitory Concentration
[25] = Staphylococcus aureus X400, agar dilution, read-out: Minimum Inhibitory Concentration

SMILES	Minimum Inhibitory Concentration (Escherichia coli EC14) [µg/mL]	Minimum Inhibitory Concentration (Escherichia coli N10) [µg/mL]	Minimum Inhibitory Concentration (Escherichia coli TEM) [µg/mL]	Minimum Inhibitory Concentration [1] [µg/mL]	Minimum Inhibitory Concentration [2] [µg/mL]	Minimum Inhibitory Concentration [3, 19] [µg/mL]	Minimum Inhibitory Concentration [4] [µg/mL]	MIC (Escherichia coli EC14) [mg/L]	MIC (Escherichia coli N10) [mg/L]	MIC (Escherichia coli TEM) [mg/L]	MIC [1] [mg/L]	MIC [2] [mg/L]	MIC [4] [mg/L]	MIC [5] [mg/L]	MIC [6] [mg/L]	MIC [8] [mg/L]	MIC [10] [mg/L]	MIC [11] [mg/L]	MIC [12] [mg/L]	MIC [13] [mg/L]	further results
Nc1nc(CC(=O)N[C@@H]2C(=O)N3C(C(=O)O)=C(Cl)CS[C@H]23)ns1 [Compound 1]	8	32	16	4	4	> 128	4	–	–	–	–	–	–	–	–	–	–	–	–	–	Minimum Inhibitory Concentration [5]: 8 µg/mL; Minimum Inhibitory Concentration [6]: 64 µg/mL; Minimum Inhibitory Concentration [7, 20]: 128 µg/mL; Minimum Inhibitory Concentration [8]: 4 µg/mL; Minimum Inhibitory Concentration [9, 21]: > 128 µg/mL; Minimum Inhibitory Concentration [10]: 4 µg/mL; Minimum Inhibitory Concentration [11]: 16 µg/mL; Minimum Inhibitory Concentration [12]: 2 µg/mL; Minimum Inhibitory Concentration [13]: 1 µg/mL; Minimum Inhibitory Concentration [14, 22]: 128 µg/mL; Minimum Inhibitory Concentration [15, 23]: > 128 µg/mL
Nc1nc(CC(=O)N[C@@H]2C(=O)N3C(C(=O)O)=C(Cl)CS[C@H]23)cs1 [Compound 2, 7β-[2-(2-Aminothiazol-4-yl)acetamido]-3-chloro-3-cephem-4-carboxylic acid]	–	–	–	–	–	–	–	1 (≈ 2.67 µM)	4 (≈ 10.7 µM)	2 (≈ 5.34 µM)	0.5 (≈ 1.33 µM)	0.5 (≈ 1.33 µM)	0.25 (≈ 0.667 µM)	0.5 (≈ 1.33 µM)	32 (≈ 85.4 µM)	1 (≈ 2.67 µM)	1 (≈ 2.67 µM)	4 (≈ 10.7 µM)	0.5 (≈ 1.33 µM)	0.06 (≈ 0.16 µM)	Oral Bioavailability % BA (AUC) [16]: 62%; Oral Bioavailability % BA (URINE) [16]: 64%; bioavailability ([17]; oral, calculated with the above-described formulae): 28%; MIC [3, 19]: 16 mg/L (≈ 42.7 µM); MIC [7, 24]: 32 mg/L (≈ 85.4 µM); MIC [9, 25]: > 128 mg/L; MIC [14, 22]: 32 mg/L (≈ 85.4 µM); MIC [15, 23]: > 128 mg/L
O=C(Cc1csc(Cl)n1)N[C@@H]1C(=O)N2C(C(=O)O)=C(Cl)CS[C@H]12 [Compound 3, 7β-[2-(2-Chlorothiazol-4-yl)acetamido]-3-chloro-3-cephem-4-carboxylic acid]	–	–	–	–	–	–	–	16 (≈ 40.6 µM)	32 (≈ 81.2 µM)	16 (≈ 40.6 µM)	2 (≈ 5.07 µM)	2 (≈ 5.07 µM)	4 (≈ 10.1 µM)	8 (≈ 20.3 µM)	64 (≈ 162 µM)	1 (≈ 2.54 µM)	2 (≈ 5.07 µM)	8 (≈ 20.3 µM)	0.5 (≈ 1.27 µM)	0.25 (≈ 0.634 µM)	Oral Bioavailability % BA (AUC) [16]: 66%; Oral Bioavailability % BA (URINE) [16]: 56%; MIC [3, 19]: 128 mg/L (≈ 325 µM); MIC [7, 24]: 64 mg/L (≈ 162 µM); MIC [9, 25]: > 128 mg/L; MIC [14, 22]: 64 mg/L (≈ 162 µM); MIC [15, 23]: 128 mg/L (≈ 325 µM)
Cc1nc(CC(=O)N[C@@H]2C(=O)N3C(C(=O)O)=C(Cl)CS[C@H]23)cs1 [Compound 4, 7β-[2-(2-Methylthiazol-4-yl)acetamido]-3-chloro-3-cephem-4-carboxylic acid]	–	–	–	–	–	–	–	16 (≈ 42.8 µM)	32 (≈ 85.6 µM)	16 (≈ 42.8 µM)	1 (≈ 2.67 µM)	2 (≈ 5.35 µM)	2 (≈ 5.35 µM)	8 (≈ 21.4 µM)	128 (≈ 342 µM)	1 (≈ 2.67 µM)	2 (≈ 5.35 µM)	8 (≈ 21.4 µM)	1 (≈ 2.67 µM)	0.25 (≈ 0.669 µM)	Oral Bioavailability % BA (AUC) [16]: 57%; Oral Bioavailability % BA (URINE) [16]: 66%; MIC ([3]; Klebsiella pneumoniae): > 128 mg/L; MIC ([7]; Staphylococcus aureus, V41, read-out: Minimum Inhibitory Concentration): 128 mg/L (≈ 342 µM); MIC ([9]; Staphylococcus aureus, X400, read-out: Minimum Inhibitory Concentration): > 128 mg/L; MIC ([14]; Streptococcus): 128 mg/L (≈ 342 µM); MIC ([15]; Streptococcus): > 128 mg/L
O=C(Cc1csc(-c2ccccc2)n1)N[C@@H]1C(=O)N2C(C(=O)O)=C(Cl)CS[C@H]12 [Compound 5, 7β-[2-(2-Phenylthiazol-4-yl)acetamido]-3-chloro-3-cephem-4-carboxylic acid]	–	–	–	–	–	–	–	> 128	> 128	> 128	0.5 (≈ 1.15 µM)	4 (≈ 9.18 µM)	8 (≈ 18.4 µM)	> 128	16 (≈ 36.7 µM)	0.25 (≈ 0.574 µM)	0.5 (≈ 1.15 µM)	4 (≈ 9.18 µM)	0.125 (≈ 0.287 µM)	0.06 (≈ 0.138 µM)	MIC [3, 19]: > 128 mg/L; MIC [7, 24]: 32 mg/L (≈ 73.4 µM); MIC [9, 25]: 64 mg/L (≈ 147 µM); MIC [14, 22]: 16 mg/L (≈ 36.7 µM); MIC [15, 23]: 64 mg/L (≈ 147 µM)
O=C(Cn1cnnn1)N[C@@H]1C(=O)N2C(C(=O)O)=C(Cl)CS[C@H]12 [Compound 6]	16	32	32	8	16	> 128	32	–	–	–	–	–	–	–	–	–	–	–	–	–	Minimum Inhibitory Concentration [5]: 32 µg/mL; Minimum Inhibitory Concentration [6]: 32 µg/mL; Minimum Inhibitory Concentration [7, 20]: 32 µg/mL; Minimum Inhibitory Concentration [8]: 2 µg/mL; Minimum Inhibitory Concentration [9, 21]: > 128 µg/mL; Minimum Inhibitory Concentration [10]: 4 µg/mL; Minimum Inhibitory Concentration [11]: 16 µg/mL; Minimum Inhibitory Concentration [12]: 0.5 µg/mL; Minimum Inhibitory Concentration [13]: 0.5 µg/mL; Minimum Inhibitory Concentration [14, 22]: 64 µg/mL; Minimum Inhibitory Concentration [15, 23]: 64 µg/mL
N#Cc1ncn(CC(=O)N[C@@H]2C(=O)N3C(C(=O)O)=C(Cl)CS[C@H]23)n1 [Compound 7]	32	64	64	2	2	> 128	32	–	–	–	–	–	–	–	–	–	–	–	–	–	Minimum Inhibitory Concentration [5]: 64 µg/mL; Minimum Inhibitory Concentration [6]: 128 µg/mL; Minimum Inhibitory Concentration [7, 20]: 128 µg/mL; Minimum Inhibitory Concentration [8]: 2 µg/mL; Minimum Inhibitory Concentration [9, 21]: > 128 µg/mL; Minimum Inhibitory Concentration [10]: 4 µg/mL; Minimum Inhibitory Concentration [11]: 8 µg/mL; Minimum Inhibitory Concentration [12]: 0.5 µg/mL; Minimum Inhibitory Concentration [13]: 0.25 µg/mL; Minimum Inhibitory Concentration [14, 22]: 64 µg/mL; Minimum Inhibitory Concentration [15, 23]: 128 µg/mL
CC1(C)S[C@@H]2[C@H](NC(=O)COc3ccccc3)C(=O)N2[C@H]1C(=O)O [Penicillin V]	–	–	–	–	–	–	–	–	–	–	–	–	–	–	–	–	–	–	–	–	bioavailability ([17]; dog, urine recovery with time following intravenous and oral administration, read-out: bioavailability (percent of dose recovered in the urine)): 21%; oral bioavailability (area under the curves) ([17]; serum antibacterial levels with time following intravenous and oral administration): 11%
N[C@@H](C(=O)N[C@@H]1C(=O)N2C(C(=O)O)=C(Cl)CS[C@H]12)c1ccccc1 [cefaclor]	–	–	–	–	–	–	–	–	–	–	–	–	–	–	–	–	–	–	–	–	absorption from the gastrointestinal tract [18]: high absorption
CC1=C(C(=O)O)N2C(=O)[C@@H](NC(=O)[C@H](N)C3=CCC=CC3)[C@H]2SC1 [cephradine]	–	–	–	–	–	–	–	–	–	–	–	–	–	–	–	–	–	–	–	–	absorption from the gastrointestinal tract [18]: high absorption
